Source: the supplement of paper PMC10307832

How the values were obtained:
Assay in all cases: relative viability (nuclei count vs DMSO), 5 days (fraction); higher = more cells survive
VE-821 + Decitabine = compound: CS(=O)(=O)c1ccc(-c2cnc(N)c(C(=O)Nc3ccccc3)n2)cc1 [VE-821] + Nc1ncn([C@H]2C[C@H](O)[C@@H](CO)O2)c(=O)n1 [Decitabine] (partner 2 µM)
How it was run: (§1)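 Lung cancer cell lines, seeded in 1536-well plates, were treated the following day by pin tool with a single drug or with five library-drug doses (not always all listed) in √10 steps on top of a fixed anchor-drug dose. Cells were fixed and nuclei stained in one step after 5 days, and nuclei were counted. Relative viability is the nuclei count for treated wells divided by that for vehicle wells, reported as medians of duplicate plates.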

Ruxolitinib + Pictilisib = compound: N#CC[C@H](C1CCCC1)n1cc(-c2ncnc3[nH]ccc23)cn1 [Ruxolitinib] + CS(=O)(=O)N1CCN(Cc2cc3nc(-c4cccc5[nH]ncc45)nc(N4CCOCC4)c3s2)CC1 [Pictilisib] (partner 1 µM)
How it was run: as §1

Vismodegib + Pictilisib = compound: CS(=O)(=O)c1ccc(C(=O)Nc2ccc(Cl)c(-c3ccccn3)c2)c(Cl)c1 [Vismodegib] + CS(=O)(=O)N1CCN(Cc2cc3nc(-c4cccc5[nH]ncc45)nc(N4CCOCC4)c3s2)CC1 [Pictilisib] (partner 1 µM)
How it was run: as §1

VE-821 + Pictilisib = compound: CS(=O)(=O)c1ccc(-c2cnc(N)c(C(=O)Nc3ccccc3)n2)cc1 [VE-821] + CS(=O)(=O)N1CCN(Cc2cc3nc(-c4cccc5[nH]ncc45)nc(N4CCOCC4)c3s2)CC1 [Pictilisib] (partner 1 µM)
How it was run: as §1

Cell Line | relative viability (VE-821 + Decitabine; first compound 0.08 µM) | relative viability (VE-821 + Decitabine; first compound 0.253 µM) | relative viability (VE-821 + Decitabine; first compound 0.8 µM) | relative viability (VE-821 + Decitabine; first compound 2.53 µM) | relative viability (VE-821 + Decitabine; first compound 8 µM) | relative viability (Ruxolitinib + Pictilisib; first compound 0.08 µM) | relative viability (Ruxolitinib + Pictilisib; first compound 0.253 µM) | relative viability (Ruxolitinib + Pictilisib; first compound 0.8 µM) | relative viability (Ruxolitinib + Pictilisib; first compound 2.53 µM) | relative viability (Ruxolitinib + Pictilisib; first compound 8 µM) | relative viability (Vismodegib + Pictilisib; first compound 0.08 µM) | relative viability (Vismodegib + Pictilisib; first compound 0.253 µM) | relative viability (Vismodegib + Pictilisib; first compound 0.8 µM) | relative viability (Vismodegib + Pictilisib; first compound 2.53 µM) | relative viability (Vismodegib + Pictilisib; first compound 8 µM) | relative viability (VE-821 + Pictilisib; first compound 0.08 µM) | relative viability (VE-821 + Pictilisib; first compound 0.253 µM) | relative viability (VE-821 + Pictilisib; first compound 0.8 µM) | relative viability (VE-821 + Pictilisib; first compound 2.53 µM) | relative viability (VE-821 + Pictilisib; first compound 8 µM)
BEN | 0.699 | 0.679 | 0.687 | 0.768 | 0.644 | 0.494 | 0.583 | 0.647 | 0.53 | 0.584 | 0.614 | 0.602 | 0.537 | 0.541 | 0.583 | 0.707 | 0.55 | 0.527 | 0.591 | 0.542
NCI-H520 | 0.516 | 0.526 | 0.583 | 0.545 | 0.379 |  | 0.258 | 0.236 | 0.251 | 0.34 | 0.332 | 0.254 | 0.271 | 0.274 | 0.309 | 0.321 | 0.357 |  | 0.325 | 0.276
NCI-H2087 | 0.381 | 0.286 | 0.309 | 0.363 | 0.275 | 0.798 | 0.937 | 0.645 | 0.335 | 0.842 | 0.673 | 0.702 | 0.843 | 0.874 | 0.732 | 1.23 | 0.721 | 0.971 | 1.14 | 0.888
NCI-H2347 | 0.624 | 0.595 | 0.678 | 0.693 | 0.723 | 0.437 | 0.637 | 0.554 | 0.485 | 0.674 | 0.563 | 0.664 | 0.637 | 0.609 | 0.717 | 0.565 | 0.583 | 0.563 | 0.525 | 0.485
A549 | 0.319 | 0.454 | 0.221 | 0.318 | 0.281 | 0.579 | 0.529 | 0.576 | 0.407 | 0.233 | 0.507 | 0.465 | 0.478 | 0.56 | 0.432 | 0.616 | 0.481 | 0.531 | 0.468 | 0.229
NCI-H838 | 0.461 | 0.488 | 0.564 | 0.559 | 0.456 | 0.464 | 0.433 | 0.402 | 0.24 | 0.278 | 0.389 | 0.408 | 0.415 | 0.489 | 0.504 | 0.436 | 0.359 | 0.496 | 0.561 | 0.557
LXF-289 | 0.426 | 0.413 | 0.467 | 0.437 | 0.556 | 0.785 | 0.797 | 0.804 | 0.739 | 0.498 | 0.735 | 0.783 | 0.765 | 0.883 | 0.802 | 0.969 | 0.754 | 0.796 | 0.869 | 0.808
LC-2-ad | 0.747 | 0.769 | 0.955 | 0.865 | 0.916 | 0.41 | 0.313 | 0.519 | 0.362 | 0.211 | 0.49 | 0.503 | 0.513 | 0.643 | 0.421 | 0.704 | 0.392 | 0.545 | 0.514 | 0.373
NCI-H2085 | 0.539 | 0.528 | 0.778 |  | 0.538 | 0.564 | 0.469 | 0.419 | 0.463 | 0.611 | 0.418 | 0.447 | 0.377 | 0.444 | 0.417 | 0.461 | 0.446 | 0.485 | 0.483 | 0.409
